Converted amounts (≈) assume the structure as drawn.
Legend:
[1] = Test of solubility of crystal form A and its salts in four medias (HPLC, 24 hr); settings: for Solubility (ug/mL)_24 hr: 24 hr stirring; for pH (24 hr): supernatant
Description: (§1) Preparation of Control Solution (Crystal Form a as Control Sample)
(§2) Crystal form A was accurately weighed and added into a sample vial. 10 mL of acetonitrile was added, and subject to ultrasonic treatment for 5 min. The mixture was cooled to room temperature, and mixed homogeneously. Two aliquots were formulated in parallel, and labelled as STD-1 and STD-2, respectively.
Preparation of Linear Solution
(§3) The control solution STD-1 was gradually diluted 1×, 5×, 10×, 100×, and 1000×, and labelled as the linear solutions L1, L2, L3, L4, L5.
(§4) Test of Solubility of Crystal Form a and its Salts
(§5) The crystal form A and its salts were tested for their solubility in medias at 4 different pH values. About 10 mg of free base (10.8 mg of hydrochloride, 12.1 mg of methane sulfonate) was added into a glass vial. Four aliquots were weighed, 5.0 mL of individual media (water, SGF, FaSSIF, FeSSIF*) was added to each aliquot, respectively. The mixture was mixed homogeneously to for a suspension. A magnet was placed into the suspension, which was placed on a magnetic stirred for stirring. After 24 hours of stirred, a sample was taken and centrifugalized. The supernatant was detected by HPLC for its concentration and pH value.

physchem = settings: FeSSIF, pH 4.89, fessif, thermodynamic from solid
Description: as §1, §2
Preparation of Linear Solution
as §3, §4, §5

[2] = Test of solid stability of crystal forms F, K and L; format: physicochemical
Description: Test of Solid Stability of Crystal Form F (Hydrochloride), Crystal Form K (Methane Sulfonate) and Crystal Form L (Methane Sulfonate) […] About 5 mg of each crystal form was accurately weighed and placed in a glass vial. Two aliquots were taken as the sample for test under each condition and at each time point. One aliquot was taken as the sample for XRPD test under each condition and at each time point. The vials containing sample were sealed with aluminum foil, and the foil was pierced to form some holes thereon. Then, the samples were placed in constant temperature & humidity chambers under the conditions of 60° C./92.5% RH and 40° C./75% RH. [table] 2. Analysis of Sample of Solid Stability At the tested time point, the sample was taken out, capped, and stood to room temperature. […] Diluent: an aqueous solution of methanol-0.04% TFA (90:10, v:v) Mobile phase A: 0.04% aqueous solution of TFA Mobile phase B: Acetonitrile as mobile phase B. Crystal form F (hydrochloride): To each sample was added 18 mL of the diluent (to the sample at Day 0 was added 20 mL of the diluent). The mixture was subject to ultrasonic treatment for 2 min, and mixed homogeneously for use as the sample solution. Crystal forms K and L (methane sulfonate): To each sample was added 15 mL of the diluent. The mixture was subject to ultrasonic treatment for 2 min, and mixed homogeneously for use as the sample solution. NOTE: All the sample solutions were injected for analysis immediately after formulation. Once the HPLC system was stable, the sample was injected for analysis.

A549 Transplant Model = assay: Analysis of tumor growth inhibition (TGI), A549 transplant model; format: in vivo; settings: mice, QD
Description: The development and growth of tumors are evaluated by the relation between the tumor volume and time. The long axis (L) and the short axis (W) are measured with caliper twice per week. The tumor volume (TV) is calculated in accordance with the formula of (L×W^2)/2. TGI is calculated from the difference between the median tumor volume of mice of the solvent group and the median tumor volume of mice of the administration group, and expressed as a percentage relative to the median tumor volume of the solvent group.
It is calculated from the equation of: % TGH(Median Tumor Volume (Control Group) Median Tumor Volume (Administration Group))/Median Tumor Volume (Control Group))×100%
The initial statistical analysis is carried out by repeated variance analyses. Next, multiple comparisons are made by Scheffe psot hoc test method. A solvent (aqueous solution containing 0.5% of methylcellulose and 0.2% Tween) alone is used as negative control.

[3] = FaSSIF (pH 6.48), listed as Hydrochloride Crystal form F
[4] = Water (pH 6.33), listed as Hydrochloride Crystal form F
[5] = 40° C./75% RH, Day 5, sum of impurities > 0.02%
[6] = 60° C., Day 5, sum of impurities > 0.02%
[7] = 92.5% RH, Day 5, sum of impurities > 0.02%
[8] = -20° C., Day 0 (control per se), Table 17
[9] = -20° C., Day 0, sum of impurities > 0.02%
[10] = FaSSIF (pH 6.48), listed as Methane sulfonate Crystal form K
[11] = Water (pH 6.33), listed as Methane sulfonate Crystal form K

For COc1cc2nccc(Oc3ccc(NC(=S)NC4CC4)c(Cl)c3F)c2cc1C(N)=O [Crystal form A], the “Solubility (ug/mL)_24 hr” value ([1]; FaSSIF (pH 6.48)) was 2.62 µg/mL, the “Solubility (ug/mL)_24 hr” value ([1]; SGF (pH 1.72), methane sulfonate loaded to 10 mg/mL of free base) was 692.77 µg/mL and the “Solubility (ug/mL)_24 hr” value ([1]; Water (pH 6.33)) was 2.38 µg/mL. For the same compound, the “pH (24 hr)” value ([1]; FaSSIF (pH 6.48)) was 6.18, the “pH (24 hr)” value ([1]; FeSSIF (pH 4.89)) was 4.98 and the “pH (24 hr)” value ([1]; SGF (pH 1.72)) was 1.97. For the same compound, the “pH (24 hr)” value ([1]; Water (pH 6.33)) was 7.16.

With COc1cc2nccc(Oc3ccc(NC(=S)NC4CC4)c(Cl)c3F)c2cc1C(N)=O [Crystal form F] the solubility at 24 h (physchem) was 70.1 µg/mL (≈ 152 µM), the “Solubility (ug/mL)_24 hr” value [1, 3] was 64.32 µg/mL and the “Solubility (ug/mL)_24 hr” value ([1]; SGF (pH 1.72), methane sulfonate loaded to 10 mg/mL of free base, listed as Hydrochloride Crystal form F) was 1217.07 µg/mL. For the same compound, the “Solubility (ug/mL)_24 hr” value [1, 4] was 319.05 µg/mL, the “pH (24 hr)” value [1, 3] was 3.73 and the “pH (24 hr)” value ([1]; FeSSIF (pH 4.89), listed as Hydrochloride Crystal form F) was 4.89. The “pH (24 hr)” value ([1]; SGF (pH 1.72), listed as Hydrochloride Crystal form F) was 1.80, the “pH (24 hr)” value [1, 4] was 2.56 and the “Content (%)” value ([2]; 40° C./75% RH, Day 5, Table 17) was 100.5%. For the same compound, the “Total impurity (%)” value [2, 5] was 4.94%, the “Content (%)” value ([2]; 60° C., Day 5, Table 17) was 99.6% and the “Total impurity (%)” value [2, 6] was 4.86%. For the same compound, the “Content (%)” value ([2]; 92.5% RH, Day 5, Table 17) was 100.3%, the “Total impurity (%)” value [2, 7] was 4.52% and the “Content (%)” value [2, 8] was 100.0%. For the same compound, the “Total impurity (%)” value [2, 9] was 4.66%.

In the case of COc1cc2nccc(Oc3ccc(NC(=S)NC4CC4)c(Cl)c3F)c2cc1C(N)=O [Crystal form K], the “Solubility (ug/mL)_24 hr” value [1, 10] is reported as 38.04 µg/mL, the “Solubility (ug/mL)_24 hr” value ([1]; SGF (pH 1.72), methane sulfonate loaded to 10 mg/mL of free base, listed as Methane sulfonate Crystal form K) is reported as 6601.59 µg/mL and the “Solubility (ug/mL)_24 hr” value [1, 11] is reported as 329.78 µg/mL. The “pH (24 hr)” value [1, 10] was 3.92, the “pH (24 hr)” value ([1]; FeSSIF (pH 4.89), listed as Methane sulfonate Crystal form K) was 4.88 and the “pH (24 hr)” value ([1]; SGF (pH 1.72), listed as Methane sulfonate Crystal form K) was 1.76. The “pH (24 hr)” value [1, 11] was 2.53, the “Content (%)” value ([2]; 40° C./75% RH, Day 5, Table 17) was 98.5% and the “Total impurity (%)” value [2, 5] was 5.32%. The “Content (%)” value ([2]; 40° C./75% RH, Day 10, Table 17) was 101.7%, the “Total impurity (%)” value ([2]; 40° C./75% RH, Day 10, sum of impurities > 0.02%) was 5.62% and the “Content (%)” value ([2]; 60° C., Day 5, Table 17) was 94.6%. For the same compound, the “Total impurity (%)” value [2, 6] was 9.33%, the “Content (%)” value ([2]; 60° C., Day 10, Table 17) was 93.9% and the “Total impurity (%)” value ([2]; 60° C., Day 10, sum of impurities > 0.02%) was 8.94%. For the same compound, the “Content (%)” value ([2]; 92.5% RH, Day 5, Table 17) was 99.3%, the “Total impurity (%)” value [2, 7] was 5.16% and the “Content (%)” value ([2]; 92.5% RH, Day 10, Table 17) was 99.5%. The “Total impurity (%)” value ([2]; 92.5% RH, Day 10, sum of impurities > 0.02%) was 4.87%, the “Content (%)” value [2, 8] was 100.0% and the “Total impurity (%)” value [2, 9] was 5.20%.

With COc1cc2nccc(Oc3ccc(NC(=S)NC4CC4)c(Cl)c3F)c2cc1C(N)=O [Crystal form L] the “TGI % (Last Administration)” value (A549 Transplant Model; 50 mg/kg) was 82%, the “TGI % (Last Administration)” value (A549 Transplant Model; 100 mg/kg) was 90% and the “TGI % (Last Administration)” value (A549 Transplant Model; 200 mg/kg) was 91%. The “Content (%)” value ([2]; 40° C./75% RH, Day 30, Table 18) was 99.4%, the “Total impurity (%)” value ([2]; 40° C./75% RH, Day 30, sum of impurities > 0.05%) was 0.9% and the “Content (%)” value ([2]; 40° C./75% RH, Day 60, Table 18) was 99.9%. The “Total impurity (%)” value ([2]; 40° C./75% RH, Day 60, sum of impurities > 0.05%) was 0.9%, the “Content (%)” value ([2]; 40° C./75% RH, Day 90, Table 18) was 97.5% and the “Total impurity (%)” value ([2]; 40° C./75% RH, Day 90, sum of impurities > 0.05%) was 1.0%. For the same compound, the “Content (%)” value ([2]; 60° C., Day 5, Table 18) was 97.8%, the “Total impurity (%)” value ([2]; 60° C., Day 5, sum of impurities > 0.05%) was 0.8% and the “Content (%)” value ([2]; 60° C., Day 10, Table 18) was 97.4%. For the same compound, the “Total impurity (%)” value ([2]; 60° C., Day 10, sum of impurities > 0.05%) was 0.8%, the “Content (%)” value ([2]; 60° C., Day 30, Table 18) was 97.1% and the “Total impurity (%)” value ([2]; 60° C., Day 30, sum of impurities > 0.05%) was 0.8%. The “Content (%)” value ([2]; 92.5% RH, Day 5, Table 18) was 98.0%, the “Total impurity (%)” value ([2]; 92.5% RH, Day 5, sum of impurities > 0.05%) was 0.8% and the “Content (%)” value ([2]; 92.5% RH, Day 10, Table 18) was 97.6%. For the same compound, the “Total impurity (%)” value ([2]; 92.5% RH, Day 10, sum of impurities > 0.05%) was 0.8%, the “Content (%)” value ([2]; 92.5% RH, Day 30, Table 18) was 100.2% and the “Total impurity (%)” value ([2]; 92.5% RH, Day 30, sum of impurities > 0.05%) was 0.8%. For the same compound, the “Content (%)” value ([2]; -20° C., Day 0, Table 18) was 97.5% and the “Total impurity (%)” value ([2]; -20° C., Day 0, sum of impurities > 0.05%) was 0.8%.

With COc1cc2nccc(Oc3ccc(NC(=S)NC4CC4)c(Cl)c3F)c2cc1C(N)=O [methane sulfonate] the “Solubility, conclusion in words” value ([1]; SGF, listed as methanesulfonate salt) was “good solubility”.

— patent publication US10766862B2, “Crystal form and salt form of and preparation method for tyrosine kinase inhibitor” (GUANGDONG RAYNOVENT BIOTECH CO., LTD., priority 2016, dated 2020)
